Experimental findings from patent US6420600B1, “Phenylalaninol derivatives” (Hoffman-La Roche Inc., priority 1999, dated 2002) are described below.

Series [1] deals with Adult male cynomolgus monkeys. The series is described as follows: Acute airway inflammation in the atopic primate (A. suum antigen challenge, bronchoalveolar lavage cell counts). The series is classed as in vivo, Macaca fascicularis. The settings on record: p.o., 2 hours prior to A. suum antigen challenge; lavage at 24 hour after challenge; relative to vehicle treated control animals. The method, then:
Acute airway inflammation in the atopic primate.
Airway inflammation in the monkey was determined using a modification of the protocol described by Turner et al. (Turner et al., 1994). Adult male cynomolgus monkeys (Macaca fascicularis, Hazelton Labs, Denver, Pa.) weighing between 3.6-5.8 kg were used in these studies.
On the day of each experiment the animals were anesthetized with ketamine hydrochloride, 12 mg/kg, and xylazine, 0.5 mg/kg, intubated with a cuffed endotracheal tube (3 mm, Mallinckrodt Medical, St. Louis, Mo.), then seated in an upright position in a specially designed Plexiglass chair (Plas-Labs, Lansing, Mich.). The endotracheal tube was connected to a heated Fleisch pneumotachograph. Airflow was measured via a Validyn differential pressure transducer (DP 45-24) that was attached to the pneumotachograph. Transpulmonary pressure was measured via a second Validyne transducer (DP 45-24) connected between a sidearm of the tracheal cannula and a 18-gauge intrapleural needle inserted in the intercostal space located below the left nipple. […]
Airway inflammation was induced by exposing the animal to an aerosol of A. Suum extract for 60 sec. […] Airway inflammation was assessed by inserting a pediatric bronchoscope into the airway lumen down to about the 4 or 5th generation bronchi and gently lavaging with 3 ×2 ml aliquots of sterile Hanks Balanced Salt Solution. […]

On to `Cc1cccc(Cl)c1C(=O)N[C@H](CO)Cc1ccc(NC(=O)c2c(Cl)cccc2Cl)cc1` [Example 1, 4-[[(2,6-dichlorophenyl)carbonyl]amino]-N-[(2-chloro-6-methylphenyl)carbonyl]-L-phenylalaninol], for which the melting point is 198 to 200 °C. In series [1], the “number of inflammatory cells present in the lavage fluid” value is “significant decrease” and the “percent of inflammatory cells present in the lavage fluid” value is given as “significant decrease”.
